Assay results as given in patent publication US10035801B2, “Pyrazolo compounds and uses thereof” (CONSTELLATION PHARMACEUTICALS, INC., priority 2013, dated 2018).

Molecular target: T1, KDM5A (Homo sapiens, UniProt P29375)
T1 construct: Full length KDM5A enzyme was expressed and purified inhouse; made in house
Experiment: KDM5 enzyme assay, KDM5A HTRF (Example 463)
Type: biochemical
Details: compounds of Examples 1-432; read-out: Example 463 Assay KDM5A HTRF IC50

T1 sequence (P29375 whole entry): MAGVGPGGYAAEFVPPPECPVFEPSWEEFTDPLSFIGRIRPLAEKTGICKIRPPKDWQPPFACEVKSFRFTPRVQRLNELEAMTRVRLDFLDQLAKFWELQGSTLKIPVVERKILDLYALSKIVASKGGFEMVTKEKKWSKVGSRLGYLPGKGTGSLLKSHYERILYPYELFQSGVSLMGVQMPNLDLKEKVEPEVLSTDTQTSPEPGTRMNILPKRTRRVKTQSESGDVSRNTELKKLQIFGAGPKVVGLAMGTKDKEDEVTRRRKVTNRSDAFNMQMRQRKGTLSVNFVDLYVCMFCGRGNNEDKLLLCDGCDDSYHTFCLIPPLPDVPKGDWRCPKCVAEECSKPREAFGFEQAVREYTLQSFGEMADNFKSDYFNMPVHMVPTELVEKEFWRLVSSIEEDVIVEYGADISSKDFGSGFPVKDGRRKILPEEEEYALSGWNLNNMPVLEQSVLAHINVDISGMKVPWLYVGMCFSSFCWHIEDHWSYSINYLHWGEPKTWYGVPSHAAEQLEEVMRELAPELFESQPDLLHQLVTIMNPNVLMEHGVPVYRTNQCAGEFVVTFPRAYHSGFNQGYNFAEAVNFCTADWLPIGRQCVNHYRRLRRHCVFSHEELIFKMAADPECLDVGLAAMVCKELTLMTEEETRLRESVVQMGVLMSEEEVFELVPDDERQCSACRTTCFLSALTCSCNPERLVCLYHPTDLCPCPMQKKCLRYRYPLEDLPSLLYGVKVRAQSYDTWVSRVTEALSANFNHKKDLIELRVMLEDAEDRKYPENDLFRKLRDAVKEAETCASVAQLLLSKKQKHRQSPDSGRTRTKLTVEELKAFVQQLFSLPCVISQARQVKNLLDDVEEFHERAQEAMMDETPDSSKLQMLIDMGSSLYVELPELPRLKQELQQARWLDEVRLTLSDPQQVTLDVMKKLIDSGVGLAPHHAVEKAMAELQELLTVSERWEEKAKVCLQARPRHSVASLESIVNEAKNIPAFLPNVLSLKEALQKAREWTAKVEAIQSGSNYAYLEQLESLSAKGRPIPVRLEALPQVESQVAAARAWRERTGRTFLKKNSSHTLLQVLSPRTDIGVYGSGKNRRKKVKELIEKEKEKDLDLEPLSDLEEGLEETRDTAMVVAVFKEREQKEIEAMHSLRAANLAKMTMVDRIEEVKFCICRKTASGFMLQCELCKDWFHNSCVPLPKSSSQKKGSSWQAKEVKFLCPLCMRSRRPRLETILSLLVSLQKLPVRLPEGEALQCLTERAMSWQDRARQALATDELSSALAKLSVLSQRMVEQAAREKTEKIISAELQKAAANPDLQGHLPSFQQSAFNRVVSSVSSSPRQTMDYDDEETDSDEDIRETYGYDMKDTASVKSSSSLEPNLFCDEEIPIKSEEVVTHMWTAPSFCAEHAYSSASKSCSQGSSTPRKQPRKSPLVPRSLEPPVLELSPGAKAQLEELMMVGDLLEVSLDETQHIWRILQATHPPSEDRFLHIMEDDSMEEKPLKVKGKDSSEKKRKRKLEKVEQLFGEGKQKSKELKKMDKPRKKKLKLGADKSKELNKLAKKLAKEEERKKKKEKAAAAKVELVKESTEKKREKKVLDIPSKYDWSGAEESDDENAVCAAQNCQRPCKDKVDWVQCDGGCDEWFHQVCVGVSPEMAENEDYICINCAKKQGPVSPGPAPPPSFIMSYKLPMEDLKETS

CC(C)c1c(-c2ccnn2CC2CC2)[nH]c2c(C#N)cnn2c1=O (single isomer, unassigned) [Example 15, 5-(1-(cyclopropylmethyl)-1H-pyrazol-5-yl)-6-isopropyl-7-oxo-4,7-dihydropyrazolo[1,5-a]pyrimidine-3-carbonitrile]
IC50: 47 nM

CC(C)c1c(-c2ccn(CC3CC3)n2)[nH]c2c(C#N)cnn2c1=O (single isomer, unassigned) [Example 16, 5-(1-(cyclopropylmethyl)-1H-pyrazol-3-yl)-6-isopropyl-7-oxo-4,7-dihydropyrazolo[1,5-a]pyrimidine-3-carbonitrile]
IC50: 11 nM

CC(C)NC(=O)c1ccc(-c2[nH]c3c(C#N)cnn3c(=O)c2C(C)C)cc1 [Compound 345]
IC50: 140 nM

CC(C)c1c(-c2ccc(N3CCN(C)CC3)cc2)[nH]c2c(C#N)cnn2c1=O [Compound 346]
IC50: 40 nM

CC(C)c1c(-c2cc(Cl)cc(C#N)c2)[nH]c2c(C#N)cnn2c1=O [Compound 347]
IC50: 24 nM

CC(C)c1c(-c2cccc(CNS(C)(=O)=O)c2)[nH]c2c(C#N)cnn2c1=O [Compound 348]
IC50: 14 nM

CC(C)c1c(-c2cccc(-c3ccn[nH]3)c2)[nH]c2c(C#N)cnn2c1=O [Compound 349]
IC50: 14 nM

CC(C)c1c(-c2ccc(S(C)(=O)=O)cc2)[nH]c2c(C#N)cnn2c1=O [Compound 350]
IC50: 20 nM

CC(C)c1c(-c2ccc(C(=O)NC3CC3)cc2)[nH]c2c(C#N)cnn2c1=O [Compound 351]
IC50: 27 nM

CC(C)c1c(-c2cnn(CCF)c2)[nH]c2c(C#N)cnn2c1=O [Compound 352]
IC50: 27 nM

CC(C)c1c(-c2cccc(-c3ccccc3)c2)[nH]c2c(C#N)cnn2c1=O [Compound 353]
IC50: 14 nM

CC(C)c1c(-c2ccc(C(F)(F)F)c(C3CC3)c2)[nH]c2c(C#N)cnn2c1=O [Compound 354]
IC50: 77 nM

CC(C)c1c(-c2cccc(OCC3CC3)c2)[nH]c2c(C#N)cnn2c1=O [Compound 355]
IC50: 40 nM

CC(C)c1c(-c2cccc(OCc3ccccc3)c2)[nH]c2c(C#N)cnn2c1=O [Compound 356]
IC50: 44 nM

CC(C)c1c(-c2cccc(CN3CCOCC3)c2)[nH]c2c(C#N)cnn2c1=O [Compound 357]
IC50: 22 nM

CC(C)c1c(-c2cccc(COc3ccccc3)c2)[nH]c2c(C#N)cnn2c1=O [Compound 358]
IC50: 25 nM

CC(C)c1c(-c2cnn(-c3cccc(F)c3)c2)[nH]c2c(C#N)cnn2c1=O [Compound 359]
IC50: 20 nM

CC(C)c1c(/C=C/C2CC2)[nH]c2c(C#N)cnn2c1=O [Compound 360]
IC50: 28 nM

CC(C)c1c(-c2ccc(C(F)(F)F)nc2)[nH]c2c(C#N)cnn2c1=O [Compound 361]
IC50: 52 nM

CC(C)c1c(-c2cnn(-c3ccc(F)cc3)c2)[nH]c2c(C#N)cnn2c1=O [Compound 362]
IC50: 24 nM

Cc1nc(C)c(-c2[nH]c3c(C#N)cnn3c(=O)c2C(C)C)s1 [Compound 363]
IC50: 25 nM

CCCn1cc(-c2[nH]c3c(C#N)cnn3c(=O)c2C(C)C)cn1 [Compound 364]
IC50: 18 nM

CCCCn1cc(-c2[nH]c3c(C#N)cnn3c(=O)c2C(C)C)cn1 [Compound 365]
IC50: 18 nM

CC(C)c1c(-c2cnn(CCNc3ccccc3)c2)[nH]c2c(C#N)cnn2c1=O [Compound 366]
IC50: 18 nM

CC(C)c1c(-c2ccc(C(N)=O)cc2)[nH]c2c(C#N)cnn2c1=O [Compound 367]
IC50: 25 nM

CNC(=O)c1ccc(-c2[nH]c3c(C#N)cnn3c(=O)c2C(C)C)cc1 [Compound 368]
IC50: 75 nM

CNC(=O)c1ccc(-c2[nH]c3c(C#N)cnn3c(=O)c2C(C)C)cc1F [Compound 369]
IC50: 85 nM

CC(C)c1c(-c2cnn(CCN3CC(F)(F)C3)c2)[nH]c2c(C#N)cnn2c1=O [Compound 370]
IC50: 8 nM

CC(C)c1c(-c2cnn(CCN3CCC(F)(F)C3)c2)[nH]c2c(C#N)cnn2c1=O [Compound 371]
IC50: 11 nM

CC(C)c1c(-c2cnn(CCNCC(F)(F)F)c2)[nH]c2c(C#N)cnn2c1=O [Compound 372]
IC50: 15 nM

C/C=C/c1[nH]c2c(C#N)cnn2c(=O)c1C(C)C [Compound 373]
IC50: 24 nM

CC(=O)Nc1cccc(-c2[nH]c3c(C#N)cnn3c(=O)c2C(C)C)c1 [Compound 374]
IC50: 38 nM

CC(C)c1c(-c2cccc(NS(C)(=O)=O)c2)[nH]c2c(C#N)cnn2c1=O [Compound 375]
IC50: 19 nM

CC(C)c1c(-c2ccc(C(=O)N3CCOCC3)cc2)[nH]c2c(C#N)cnn2c1=O [Compound 376]
IC50: 19 nM

CC(=O)N1CCN(c2ccc(-c3[nH]c4c(C#N)cnn4c(=O)c3C(C)C)cc2)CC1 [Compound 377]
IC50: 22 nM

CC(C)c1c(-c2cnn(CC(F)F)c2)[nH]c2c(C#N)cnn2c1=O [Compound 378]
IC50: 14 nM

CC(C)c1ccc(-c2[nH]c3c(C#N)cnn3c(=O)c2C(C)C)o1 [Compound 379]
IC50: 11 nM

CC(C)c1c(-c2cnn(C3CCC(F)(F)C3)c2)[nH]c2c(C#N)cnn2c1=O (centres unmarked) [Compound 380]
IC50: 48 nM

CC(C)c1c(-c2cnn([C@H]3CC[C@@H](O)C3)c2)[nH]c2c(C#N)cnn2c1=O [Compound 381]
IC50: 30 nM

CC(C)c1c(-c2cnn([C@H]3CC[C@H](O)C3)c2)[nH]c2c(C#N)cnn2c1=O [Compound 382]
IC50: 48 nM

CC(C)c1c(-c2cccc(-c3cn[nH]c3)c2)[nH]c2c(C#N)cnn2c1=O [Compound 383]
IC50: 31 nM

CC(C)c1c(-c2ccc(Br)o2)[nH]c2c(C#N)cnn2c1=O [Compound 384]
IC50: 13 nM

CC(C)c1c(-c2cccc(Nc3ccccc3)c2)[nH]c2c(C#N)cnn2c1=O [Compound 385]
IC50: 21 nM

Cc1ncc(-c2[nH]c3c(C#N)cnn3c(=O)c2C(C)C)s1 [Compound 386]
IC50: 12 nM

CC(C)c1c(-c2cccc(C#Cc3ccccc3)c2)[nH]c2c(C#N)cnn2c1=O [Compound 387]
IC50: 130 nM

CC(C)c1c(-c2cccc(CCc3ccccc3)c2)[nH]c2c(C#N)cnn2c1=O [Compound 388]
IC50: 25 nM

CC(C)c1c(-c2cnn(C3CCC(F)C3)c2)[nH]c2c(C#N)cnn2c1=O (centres unmarked) [Compound 389]
IC50: 33 nM

COCC(C)(C)n1cc(-c2[nH]c3c(C#N)cnn3c(=O)c2C(C)C)cn1 [Compound 390]
IC50: 55 nM

C=CC(=O)N1CC(n2cc(-c3[nH]c4c(C#N)cnn4c(=O)c3C(C)C)cn2)C1 [Compound 391]
IC50: 11 nM

CCC(=O)N1CC(n2cc(-c3[nH]c4c(C#N)cnn4c(=O)c3C(C)C)cn2)C1 [Compound 392]
IC50: 20 nM

CC(C)c1c(-c2ccc(=O)[nH]c2)[nH]c2c(C#N)cnn2c1=O [Compound 393]
IC50: 12 nM

CC(C)c1c(-c2cccc(/C=C/c3ccccc3)c2)[nH]c2c(C#N)cnn2c1=O [Compound 394]
IC50: 20 nM

CC(C)c1c(-c2ccc(N3CCNCC3)cc2)[nH]c2c(C#N)cnn2c1=O [Compound 395]
IC50: 10 nM

CC(C)c1c(-c2cnn(C(C)(C)CF)c2)[nH]c2c(C#N)cnn2c1=O [Compound 396]
IC50: 34 nM

CC(C)c1c(-c2c[nH]nc2C(F)(F)F)[nH]c2c(C#N)cnn2c1=O [Compound 397]
IC50: 32 nM

Cc1cc(C)cc(-c2[nH]c3c(C#N)cnn3c(=O)c2C(C)C)c1 [Compound 398]
IC50: 41 nM

CC(C)c1c(-c2ccc(S(=O)(=O)N3CCOCC3)cc2)[nH]c2c(C#N)cnn2c1=O [Compound 399]
IC50: 54 nM

CC(C)c1c(-c2cccc(C(=O)N3CCN(C)CC3)c2)[nH]c2c(C#N)cnn2c1=O [Compound 400]
IC50: 35 nM

CC(C)c1c(-c2cccc(C(C)(C)O)c2)[nH]c2c(C#N)cnn2c1=O [Compound 401]
IC50: 39 nM

Cc1nn(C(C)C)cc1-c1[nH]c2c(C#N)cnn2c(=O)c1C(C)C [Compound 402]
IC50: 58 nM

Cc1c(-c2[nH]c3c(C#N)cnn3c(=O)c2C(C)C)cnn1C(C)C [Compound 403]
IC50: 57 nM

C=CC(C)c1c(-c2ccccc2)[nH]c2c(C#N)cnn2c1=O (centres unmarked) [Compound 404]
IC50: 18 nM

CC(C)c1c(-c2cc(C3CC3)n[nH]2)[nH]c2c(C#N)cnn2c1=O [Compound 405]
IC50: 12 nM

COC(=O)c1cc(-c2[nH]c3c(C#N)cnn3c(=O)c2C(C)C)c[nH]1 [Compound 406]
IC50: 15 nM

CC(C)c1c(-c2cc(C3CC3)nn2C(C)C)[nH]c2c(C#N)cnn2c1=O [Compound 407]
IC50: 48 nM

CC(C)c1c(-c2cc(C3CC3)n(C(C)C)n2)[nH]c2c(C#N)cnn2c1=O [Compound 408]
IC50: 150 nM

COC(=O)c1cc(-c2[nH]c3c(C#N)cnn3c(=O)c2C(C)C)cn1C(C)C [Compound 409]
IC50: 44 nM

CC(C)c1c(-c2cc(C(F)(F)F)nn2C)[nH]c2c(C#N)cnn2c1=O [Compound 410]
IC50: 39 nM

CC(C)c1c(-c2ccn(C(C)C)n2)[nH]c2c(C#N)cnn2c1=O [Compound 411]
IC50: 35 nM

CC(C)c1c(-c2cc(C3CC3)n(C3CCCC3)n2)[nH]c2c(C#N)cnn2c1=O [Compound 412]
IC50: 46 nM

CC(C)c1c(-c2cc(C3CC3)nn2C2CCCC2)[nH]c2c(C#N)cnn2c1=O [Compound 413]
IC50: 110 nM

CC(C)c1c(-c2ccn(C3CCCC3)n2)[nH]c2c(C#N)cnn2c1=O [Compound 414]
IC50: 14 nM

CC(C)c1c(-c2ccnn2C(C)C)[nH]c2c(C#N)cnn2c1=O [Compound 415]
IC50: 77 nM

CNC(=O)c1cc(-c2[nH]c3c(C#N)cnn3c(=O)c2C(C)C)cn1C(C)C [Compound 416]
IC50: 48 nM

CC(C)c1c(-c2cc(C(=O)N(C)C)n(C(C)C)c2)[nH]c2c(C#N)cnn2c1=O [Compound 417]
IC50: 31 nM

CC(C)c1c(-c2ccn(CCC3CC3)n2)[nH]c2c(C#N)cnn2c1=O [Compound 418]
IC50: 13 nM

CC(C)c1c(-c2ccnn2CCC2CC2)[nH]c2c(C#N)cnn2c1=O [Compound 419]
IC50: 88 nM

CCn1ccc(-c2[nH]c3c(C#N)cnn3c(=O)c2C(C)C)n1 [Compound 420]
IC50: 23 nM

CCc1c(-c2cccc(N3CCCC3=O)c2)[nH]c2c(C#N)cnn2c1=O [Compound 421]
IC50: 19 nM

CCc1c(-c2cccc(N3CCC(C)(C)C3=O)c2)[nH]c2c(C#N)cnn2c1=O [Compound 422]
IC50: 29 nM
